# Source: patent US6087336A, “Peptide derivatives useful in treating autoimmune diseases” (Zeneca Limited, priority 1996, dated 2000)
# Tested on: BALB/C mice
# Assay: Test C: peptide stimulated DTH (delayed type hypersensitivity) in BALB/C mice
# Assay type: in vivo
# Conditions: DTH to ovalbumin, 3-day osmotic mini-pumps
# Description: Test C: Peptide stimulated DTH (delayed type hypersensitivity) in BALB/C mice. […] Balbic female mice (18-20g), 5 per group, were immunised sub-cutaneously on the flank with 0.1 ml of an emulsion of ovalbumin (Sigma) (2mg/ml in saline) mixed 1:1 (v/v) with complete Freunds adjurant (Sigma). Seven days later footpad thickness was detemined using a dual caliper micrometer followed by a challenge in one hind footpad with a 30 μl sub-plantar injection of 1% heat-aggregated ovalbumin protein in saline. Twenty-four hours after antigen challenge, footpads were measured and the DTH response calculated as the percentage increase in footpad thickness in the injected footpad compared to contralateral control. Inhibitors were adminstered by 3-day osmotic mini-pumps (Alzet) implanted 24 hours prior to antigen challenge at doses ranging from 10 mg/kg/day to 0.1 μg/kg/day. The degree of inhibition was calculated by substracting the value for swelling of inhibitor treated footpads from that of the vehicle dosed controls, dividing by the control value and multiplying by 100%.
row,Substance,dose at which active in Test C [mg/kg/day]
1,Phv-Ala-Arg-Ala-IIb-Ala-Arg-Ala-Papa-NH2 [Example 23],< 0.1
2,Phv-Arg-Ala-Ala-Ala-Val-IIb-Ala-Pip-NH2 [Example 5],< 0.1
3,Phv-Gap(Me)4 -Ala-Ala-Ala-Thr-IIb-Ala-Papa-NH2 [Example 16],< 0.1

# Tested on: not given
# Assay: not given
# Assay type: physicochemical
# Conditions: pH 3
# Description: A typical procedure for measuring the stability of a peptide derivative of the present invention is as follows, in which, to minimize microbial contamination and degradation, all equipment that is used to prepare peptide solutions is sterilized in an autoclave and all material transfers carried out in a Class II laminar flow cabinet. Approximately 20 ml of Mcllvaine's citric acid-phosphate buffer solution at pH 3 or 7.6 containing 0.02% sodium azide is filtered into a 50 mL bottle using a sterile 0.22 μm filter unit and a 20 ml syringe. Approximately 1.2 mg of peptide is accurately weighed in a capped vial. Using a sterile pipette tip, sufficient buffer solution is added to the peptide in the vial to give a peptide concentration of 0.1 mg/ml. The vial is capped and shaken to dissolve the peptide. Using a sterile pipette tip, aliquots of approximately 1 ml of the peptide solution are transferred to 10 HPLC vials, which are then capped. 5 vials are stored at -18 and 37° C. The area of the peptide peak for the solution is determined by HPLC using appropriate standards initially and after storage at -18 and 37° C. for 1, 2, 3 and 4 weeks, using a fresh vial at each time point with duplicate sample injections. The percentage of peptide remaining after storage at 37° C. at each time point is determined from the ratio of the area of the peptide peak at each time point to the initial area. Preferred peptide derivatives of the present invention have greater than 90%, and preferably greater than 95%, of peptide remaining after storage at 37° C. at both pH 3 and 7.6.
row,Substance,aqueous stability at pH3
1,Phv-Ala-Arg-Ala-IIb-Ala-Arg-Ala-Papa-NH2 [Example 23],good aqueous stability
2,Phv-Arg-Ala-Ala-Ala-Val-IIb-Ala-Pip-NH2 [Example 5],good aqueous stability
3,Phv-Gap(Me)4 -Ala-Ala-Ala-Thr-IIb-Ala-Papa-NH2 [Example 16],good aqueous stability

# Same assay, conditions: pH 7.6
row,Substance,aqueous stability at pH 7.6
1,Phv-Ala-Arg-Ala-IIb-Ala-Arg-Ala-Papa-NH2 [Example 23],good aqueous stability
2,Phv-Arg-Ala-Ala-Ala-Val-IIb-Ala-Pip-NH2 [Example 5],good aqueous stability
3,Phv-Gap(Me)4 -Ala-Ala-Ala-Thr-IIb-Ala-Papa-NH2 [Example 16],good aqueous stability

# Tested on: not given
# Assay: not given
# Assay type: physicochemical
# Conditions: not given
# Description: Typical procedures for measuring the level of degradation of a peptide of the present invention are as follows:
# Prenaration of extruded polymer depot formulation of peptide
# About 20 mg of peptide is accurately weighed and sufficient polymer (50/50% molar poly(D,L-lactic acid/glycolic acid) copolymer of approximate weight average molecular weight 20kD and approximate polydispersity of 1.7 as determined by size exclusion chromatography relative to polystyrene standards) added to produce an approximate 20% w/w mixture. This is dissolved in […] glacial acetic acid to produce an approximate 10% w/v solution. The solution is freeze dried and the resulting freeze dried product is stored under vacii, prior to use.
# About 100 mg of freeze dried material is loaded into the barrel of a small laboratory extruder and the plunger pushed down to consolidate the sample. The extruder is heated to between 90 and 95° C. and held at this temperature for 10 minutes before the freeze dried material is extruded under presure to give a cylindrical extrudate of approximately 1 mm in diameter.
# Analysis of peptide content of extruded polymer depot formulation of peptide
# Two approximate 5 mm lengths of extruded polymer depot containing peptide are accurately weogjed amd eacj dosspved 1 ml of anhydride-free glacial acetic acid in separate 25 ml bolumertic flasks. After about 1.5 hours the volume of each is made up to 25 ml with distilled water, causing the polymer to precipitate. The solids are filtered off using a 0.5 μm Millex PTFE filter and the solutions, A, collected. […]
# Each standard is filtered through a 5 μm Millex PTFE filter and an aliquot of filtrate, together with aliquots of the solutions A, analysed by HPLC using duplicate sample injections. The peptide content of the extruded polymer depot formulation of peptide is calculated from the concentration of peptide in solutions A, which is determined by comparing the area of the peptide peak in solutions A with the area of the peptide peak from the standard solutions.
row,Substance,loss due to degradation on extrusion
1,Phv-Ala-Arg-Ala-IIb-Ala-Arg-Ala-Papa-NH2 [Example 23],minimal loss due to degradation on extrusion
2,Phv-Arg-Ala-Ala-Ala-Val-IIb-Ala-Pip-NH2 [Example 5],minimal loss due to degradation on extrusion
3,Phv-Gap(Me)4 -Ala-Ala-Ala-Thr-IIb-Ala-Papa-NH2 [Example 16],minimal loss due to degradation on extrusion
